Values of other authors in publication PMC10268011 (ACS Omega, 2023).

- systemic bioavailability: high systemic bioavailability
SMILES: COc1ccc(COc2ccc(Cc3cnc(N)nc3N)cc2OC)cc1 [GW2580, 5-(3-Methoxy-4-((4-Methoxybenzyl)Oxy)Benzyl)Pyrimidine-2,4-Diamine]
